From patent publication US10266603B2, “Targeted therapy to restore radioactive iodine transport in thyroid cancer” (The Governors of the University of Alberta, priority 2014, dated 2019)

Assays:
Assay type in all cases: cell-based, human
[1] = system: patient derived papillary thyroid carcinoma primary tumors; assay: iodide transport in patient derived primary tumors; settings: patient derived PTC primary tumors; 72 hour period
From the text: FIG. 9. In the effect of PDGFRA blockade using small molecule inhibitors on iodide transport in patient derived papillary thyroid carcinoma primary tumors.

[2] = system: BCPAP cell line; assay: wound-healing assay (cellular migration), BCPAP; settings: BCPAP cell line expressing alpha subunit of PDGFR; after 24 and 42 hours; versus no crenolanib
Method: (§1) FIG. 8. The effect of PDGFRA blockade using a specific PDGFRA small molecule inhibitor on cellular migration using the wound-healing assay. In two separate cell lines that express the alpha subunit of PDGFR as shown in (A) 8305C cell line and BCPAP cell line in (B), the addition of crenolanib as a selective alpha inhibitor means that the percentage of open wound left after 24 and 42 hours is much higher because of slow the migration of the cells across the gap and this is highly significant. This illustrates the role of PDGFRA in mediating a more aggressive, dedifferentiated behavior for these tumors.

[3] = system: 8305C cell line; assay: wound-healing assay (cellular migration), 8305C; settings: 8305C cell line expressing alpha subunit of PDGFR; after 24 and 42 hours; versus no crenolanib
Method: as §1

## CC1(COc2ccc3c(c2)ncn3-c2ccc3cccc(N4CCC(N)CC4)c3n2)COC1 [crenolanib]
[1]
  iodide uptake: significant increase in iodide uptake
[2]
  percentage of open wound left: much higher
[3]
  percentage of open wound left: much higher
